Consider 14 compounds from PubChem BioAssay (NCI).

Each structure is given as a SMILES string.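 Cultured in 96-well plates, cells were exposed to test compound for 48 hours across five concentrations. The concentration for 50% growth inhibition is given as GI50. TGI denotes the concentration required for complete inhibition of growth.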

Test systems include ACHN renal; CAKI-1 renal; KM12 colon; M14 melanoma; MOLT-4 leukemia; SK-OV-3 ovarian; SN12C renal; SR leukemia; PC-3 prostate.
Holding throughout (assay): NCI-60 cell line screen, 48 h

As to `Cn1c(N)nc(=O)c2c1N(C1OC(CO)C(O)C1O)CN2Cc1ccccc1` (configuration not stated), the TGI in the test on ACHN renal, with CAKI-1 renal, in the test with KM12 colon, in the test with M14 melanoma, in the test on MOLT-4 leukemia and in the test with SK-OV-3 ovarian was more than 100 µM in each case. Also, the TGI in the test on SN12C renal and in the test on SR leukemia was more than 100 µM each time.

With `NC1=NN(c2ccccc2)C(=O)C1C(=O)C(=O)Nc1nccs1` (configuration not stated), the TGI in the test on ACHN renal, in the test with CAKI-1 renal, with KM12 colon, with M14 melanoma, in the test with MOLT-4 leukemia and in the test with SK-OV-3 ovarian was more than 100 µM in each case. Besides, the TGI with SN12C renal and in the test with SR leukemia was more than 100 µM in each case.

Take `CC(=O)O[C@@]1(C)[C@@H](C)C(=O)O[C@@H]2CCN3CC=C(COC(=O)[C@]1(C)O)[C@H]23`: the TGI in the test on ACHN renal, in the test with CAKI-1 renal, with KM12 colon, in the test on M14 melanoma, with MOLT-4 leukemia and in the test on SR leukemia was more than 100 µM in each case.

Regarding `COc1ccc2c3c(c(C(=O)c4ccccc4)oc13)CCC2`, the TGI in the test with ACHN renal, with CAKI-1 renal, in the test with M14 melanoma, with MOLT-4 leukemia, in the test with SK-OV-3 ovarian and in the test on SN12C renal was more than 100 µM in each case.

As for `C/C=C(\CCOS(=O)(=O)c1ccc(C)cc1)[Si](C)(C)C`, the TGI in the test with ACHN renal, with KM12 colon, with M14 melanoma, in the test with MOLT-4 leukemia, with SK-OV-3 ovarian and with SN12C renal was more than 100 µM throughout. In the test on SR leukemia, the TGI is more than 100 µM.

For the compound `Nc1n[n+](-c2ccccc2)no1`, the TGI in the test on ACHN renal, in the test with CAKI-1 renal, in the test on KM12 colon, in the test on M14 melanoma, with MOLT-4 leukemia and with SK-OV-3 ovarian was more than 100 µM each time. Moreover, the TGI in the test on SN12C renal is more than 100 µM.

In the case of `Cc1[nH]c(=O)[nH]c1C(=O)c1ccc(-n2ccnc2)cc1`, the TGI in the test with ACHN renal, with CAKI-1 renal, in the test with KM12 colon, in the test on M14 melanoma, in the test on MOLT-4 leukemia and in the test on SK-OV-3 ovarian was more than 100 µM each time. Moreover, the TGI in the test with SN12C renal and in the test on SR leukemia was more than 100 µM each time.

As for `Fc1cccc(-n2ccc(-c3ccccc3)nc2=S)c1`, the GI50 in the test on ACHN renal was 16.7 µM; with CAKI-1 renal it was 4.11 µM; with KM12 colon, 18.6 µM; in the test on M14 melanoma, 73 µM; with MOLT-4 leukemia, 54 µM; with PC-3 prostate it was 17.5 µM. In addition, the GI50 with SK-OV-3 ovarian is 1.59 µM; in the test on SN12C renal, 3.01 µM; in the test with SR leukemia, 53.6 µM. The TGI with ACHN renal is 30.4 µM; with CAKI-1 renal, 14.3 µM; in the test on KM12 colon, 42.8 µM; with M14 melanoma, more than 100 µM; in the test with MOLT-4 leukemia it was more than 100 µM; in the test on PC-3 prostate it was 39.4 µM. Besides, the TGI with SK-OV-3 ovarian is 44.9 µM; with SN12C renal, 10.4 µM; with SR leukemia, more than 100 µM.

For the compound `CC1=C(O)/C(=C/C(C)CCC/C(C)=C/C=C/C(C)CCCc2ccoc2)OC1=O` (configuration not stated), the TGI in the test on ACHN renal was 50.9 µM; in the test with CAKI-1 renal, more than 100 µM; in the test on KM12 colon it was more than 100 µM; in the test on M14 melanoma, more than 100 µM; with SN12C renal, more than 100 µM.

As to `O=C1C=CC(=O)N1c1cccc(N2C(=O)C=CC2=O)c1`, the GI50 with ACHN renal is 1.77 µM; in the test on KM12 colon, 8.33 µM; in the test with M14 melanoma, 1.85 µM; in the test on MOLT-4 leukemia, 2.74 µM; in the test on PC-3 prostate, 13.4 µM; with SK-OV-3 ovarian, 18.2 µM. For the same compound, the results for the GI50 in the test with SN12C renal and with SR leukemia were 2 µM and 3.07 µM, respectively. The TGI in the test with ACHN renal stood at 3.21 µM; in the test with KM12 colon, 22.7 µM; in the test with M14 melanoma, 3.71 µM; with MOLT-4 leukemia it was 7.73 µM; in the test with PC-3 prostate it was 31.6 µM; in the test with SK-OV-3 ovarian, 32.1 µM. For the same compound, the TGI was 5.31 µM in the test on SN12C renal and more than 100 µM in the test on SR leukemia.

Consider `COC(=O)C(C(=O)C(=O)Nc1cccc([N+](=O)[O-])c1)c1nc2ccc([N+](=O)[O-])cc2[nH]c1=O` (configuration not stated), for which the TGI in the test with ACHN renal, with CAKI-1 renal, in the test with KM12 colon, with M14 melanoma, in the test with MOLT-4 leukemia and with SK-OV-3 ovarian was more than 100 µM throughout. Further, the TGI with SN12C renal and with SR leukemia was more than 100 µM in each case.

In the case of `O=C(O/N=C1/CCC/C1=C\c1ccccc1)c1ccc(Cl)c(Cl)c1`, the TGI in the test on ACHN renal, in the test on CAKI-1 renal, with KM12 colon, in the test with M14 melanoma, with MOLT-4 leukemia and in the test with SK-OV-3 ovarian was more than 100 µM throughout. For the same compound, the TGI in the test with SN12C renal and with SR leukemia was more than 100 µM in each case.

Take `CC(=O)[CH-]C(=O)c1ccccc1.CC(=O)[CH-]C(=O)c1ccccc1.Cc1cc([O-])ccc1Cl.Cc1cc([O-])ccc1Cl.[Ti+4]`: the GI50 in the test on ACHN renal is 30.1 µM; with CAKI-1 renal, 19.5 µM; in the test with KM12 colon, 14.1 µM; in the test on M14 melanoma, 23.1 µM; in the test with MOLT-4 leukemia, 15.5 µM; in the test on SK-OV-3 ovarian it was 31.3 µM. Besides, the GI50 in the test on SN12C renal is 32.3 µM. In addition, the TGI in the test on ACHN renal is more than 100 µM; in the test on CAKI-1 renal, 60.1 µM; in the test with KM12 colon it was 31.4 µM; in the test on M14 melanoma, 52.5 µM; in the test on MOLT-4 leukemia it was 54 µM; in the test on SK-OV-3 ovarian, more than 100 µM. In the test with SN12C renal, this compound had a TGI of more than 100 µM.

For `CCCCCCCCCC(=O)OCC1OC(n2cc(F)c(=O)[nH]c2=O)C(NC(=O)OCc2ccccc2)C(OC(=O)CCCCCCCCC)C1O` (configuration not stated), the TGI in the test on ACHN renal, in the test with CAKI-1 renal, in the test with KM12 colon, in the test on M14 melanoma, in the test with MOLT-4 leukemia and in the test on SK-OV-3 ovarian was more than 100 µM throughout. The TGI is 29.6 µM in the test on SN12C renal and 81.2 µM in the test with SR leukemia.
